The record followed here is patent US11319289B2, “5-hydroxy pyridine-based compound for use as P2X1 and P2X3 receptor antagonist and pharmaceutical composition comprising same” (GWANGJU INSTITUTE OF SCIENCE AND TECHNOLOGY, priority 2017, dated 2022).

Where two headings read alike, the source gives them in different places.

Format in all cases: cell-based
For assay [1], the target named is T1, mouse P2X1 receptor (mP2X1) (Mus musculus, UniProt P51576).
T1 construct: expressed in transfected cells; host or cells: Xenopus oocytes (cRNA microinjection)
T1 sequence (P51576 1-399): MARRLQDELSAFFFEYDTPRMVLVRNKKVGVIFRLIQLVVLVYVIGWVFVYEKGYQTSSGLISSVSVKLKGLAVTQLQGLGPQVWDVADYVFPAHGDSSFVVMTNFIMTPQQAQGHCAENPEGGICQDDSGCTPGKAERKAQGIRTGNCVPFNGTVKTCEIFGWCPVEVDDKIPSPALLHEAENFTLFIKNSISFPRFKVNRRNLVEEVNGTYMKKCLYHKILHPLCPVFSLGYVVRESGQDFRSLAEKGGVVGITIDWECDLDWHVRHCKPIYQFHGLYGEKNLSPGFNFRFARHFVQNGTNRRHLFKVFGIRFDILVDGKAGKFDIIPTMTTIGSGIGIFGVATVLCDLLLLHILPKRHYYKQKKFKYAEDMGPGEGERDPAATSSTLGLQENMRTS
Nature of the assay: Two-electrode voltage clamp assay, recombinant mP2X1 receptor in Xenopus oocytes. Particulars: for inhibition at 10 µM / mP2X1 % inhibitory effect at 10 μM: 10 μM compound, mean±SEM n≥3 (footnote c); for inhibition at 10 µM: read-out: mP2X1 % inhibitory effect at 10 μM. As to the method:
(§1) 1-1. Two-Electrode Voltage Clamp Assay for Recombinant mP2X1 and hP2X3 Receptors
(§2) Xenopus oocytes were isolated and incubated with 270 U/mg of collagenase at 23 to 24° C. for 1.5 hours. Defolliculated oocytes were kept in Barth's solution at 18° C. After 1 day, the defolliculated oocytes were each microinjected cytosolically with mP2X1 and human P2X3 receptor cRNA ([…], 1 μg/mL), incubated for 24 hours at 18° C. in Barth's solution. The cRNA-injected oocytes were kept for 12 days at 4° C. ATP-activated membrane currents (Vh=−70 mV) were recorded from the cRNA-injected oocytes using the two-electrode voltage clamp technique (Axoclamp 2B amplifier). Voltage recording ([…] tip resistance) and current-recording microelectrodes (5 MΩ tip resistance) were filled with 3.0 M KCl. Oocytes were placed in an electrophysiological chamber continuously superfused with Ringer's solution (5 mL/min, at 18° C.) containing 110 mM NaCl, 2.5 mM KCl, 5 mM HEPES and 1.8 mM BaCl2, with pH adjusted to 7.5. To induce an evoked current, 2 μM ATP was superfused for 60 to 120 seconds and then washed for 20 min. For data analysis, the ATP-evoked current was normalized at pH 7.5. The compounds were introduced to the fixed oocytes 20 minutes prior to ATP exposure in the electrophysiological chamber. IC50 values (the concentration of the compound required to inhibit the ATP response by 50%) were determined by Hill plots designed using the Chemical Formula: log(I/Imax−1), where I is the current evoked by ATP in the presence of an antagonist. Data are presented as mean±SEM (n≥3) from different batches of oocytes.
(§3) In order to investigate the structure-activity relationship (SAR) of the compounds synthesized in the present invention, the antagonistic activity was evaluated by a two-electrode voltage clamp (TEVC) assay in Xenopus oocytes expressing the recombinant mP2X1 or hP2X3, respectively. The hP2X7R antagonistic activity was assessed using an ethidium ion accumulation assay in human HEK293 cells stably expressing the recombinant human P2X7R.
(In general: Two-electrode voltage clamp holds a large cell at a set potential and records current.)

In assay [2] the target is T2, human P2X3 receptor (hP2X3) (Homo sapiens, UniProt P56373).
T2 construct: expressed in transfected cells; host or cells: Xenopus oocytes (cRNA microinjection)
T2 sequence (P56373 1-397): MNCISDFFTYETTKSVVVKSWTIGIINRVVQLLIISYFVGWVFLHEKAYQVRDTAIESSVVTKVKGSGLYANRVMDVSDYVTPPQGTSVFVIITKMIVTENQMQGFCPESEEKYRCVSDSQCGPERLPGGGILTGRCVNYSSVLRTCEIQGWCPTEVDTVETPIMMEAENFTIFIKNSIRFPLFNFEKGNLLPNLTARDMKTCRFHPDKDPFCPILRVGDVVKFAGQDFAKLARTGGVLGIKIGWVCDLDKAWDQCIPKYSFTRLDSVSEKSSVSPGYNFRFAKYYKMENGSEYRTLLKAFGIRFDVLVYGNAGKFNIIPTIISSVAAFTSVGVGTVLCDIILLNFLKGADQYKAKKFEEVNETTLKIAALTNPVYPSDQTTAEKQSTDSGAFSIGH
Nature of the assay: Two-electrode voltage clamp assay, recombinant hP2X3 receptor in Xenopus oocytes. Particulars: for IC50: 2 μM ATP-evoked current, mean±SEM n≥3 (footnote d); for IC50 / inhibition at 1 µM: Xenopus oocytes; for selectivity for hP2X3R to mP2X1R: hP2X3R versus mP2X1R; for inhibition at 1 µM: 1 μM compound, 2 μM ATP, mean±SEM n≥3 (footnote b), read-out: hP2X3 % inhibitory effect at 1 μM. As to the method: as §1, §2, §3

The target of assay [3] is T3, human P2X7 receptor (hP2X7) (Homo sapiens, UniProt Q99572).
T3 construct: expressed in transfected cells
T3 sequence (Q99572 1-595): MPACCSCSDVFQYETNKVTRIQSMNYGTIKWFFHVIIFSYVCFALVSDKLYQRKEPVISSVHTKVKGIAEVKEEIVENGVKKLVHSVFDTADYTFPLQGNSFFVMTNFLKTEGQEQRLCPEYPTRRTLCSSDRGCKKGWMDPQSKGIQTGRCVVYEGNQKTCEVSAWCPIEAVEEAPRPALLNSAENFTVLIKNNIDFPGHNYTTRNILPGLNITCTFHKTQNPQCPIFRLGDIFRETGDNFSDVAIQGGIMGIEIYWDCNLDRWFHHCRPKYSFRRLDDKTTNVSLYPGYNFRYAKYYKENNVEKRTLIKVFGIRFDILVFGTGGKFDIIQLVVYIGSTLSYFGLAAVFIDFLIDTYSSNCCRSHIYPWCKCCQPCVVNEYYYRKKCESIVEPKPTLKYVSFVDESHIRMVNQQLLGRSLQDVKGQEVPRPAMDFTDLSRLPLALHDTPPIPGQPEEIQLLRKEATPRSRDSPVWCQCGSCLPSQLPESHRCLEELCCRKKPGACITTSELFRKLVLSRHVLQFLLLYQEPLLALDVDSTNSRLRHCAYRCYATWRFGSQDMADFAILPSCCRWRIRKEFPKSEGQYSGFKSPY
Nature of the assay: Ethidium bromide accumulation assay in hP2X7-expressing HEK293 cells. Particulars: for hP2X7 % inhibition of ethidium bromide accumulation: 10 μM compound with BzATP. As to the method: 1-2. Ethidium Bromide Accumulation Assay in hP2X-Expressing HEK293 Cells
HEK293 cells that are stably transfected with the human P2X7 receptor (P2X7R) were kept under a humidified atmosphere of 5% CO2 at 37° C. in DMEM supplemented with 10% (v/v) FBS, 2 mM L-glutamine and antibiotics (50 U/mL penicillin and 50 μg/ml streptomycin). BzATP-induced pore formation was measured using a fluorescence plate reader by measuring cellular absorption of ethidium in the hP2X7-expressing HEK293 cells. The hP2X7-expressing HEK293 cells were washed once with an appropriate assay buffer, and the buffer was also removed before subsequent analysis. All studies were performed at room temperature and the final assay volume was 100 μL. The cells were resuspended at 2.5×10^6 cells/mL in assay buffers consisting of 10 mM HEPES, 5 mM N-methyl-D-glucamine, 5.6 mM KCl, 10 mM D-glucose and 0.5 mM CaCl2 (pH 7.4) and supplemented with 280 mM sucrose or 140 mM NaCl.
In order to determine the antagonistic activity of the 5-hydroxyl-pyridine derivatives of the present invention and the reference compound (AZD9056), these compounds were added to the cells at a concentration of 10 μM with BzATP without pre-incubation. The cells were incubated for 2 hours under a humidified atmosphere of 5% CO2 at 37° C., and the absorption of ethidium dye was observed by measuring fluorescence with a Bio-Tek instrument FL600 fluorescent plate reader (excitation wavelength of 530 nm and emission wavelength of 590 nm). The results are expressed as a percentage relative to the maximum cumulative amount of ethidium bromide when stimulated with BzATP alone.
as §3

With `CCCc1nc(Cc2cccc(Oc3ccccc3)c2)c(C(=O)O)c(C(=O)O)c1O` [Compound 27, 5-Hydroxy-2-(3-phenoxybenzyl)-6-propylpyridine-3,4-dicarboxylic acid], in assay [1] (2 μM ATP), the inhibition at 10 µM was found to be 27.5 ± 4.5%. Also, the IC50 in assay [2] came out at 301 nM. Moreover, the “hP2X7 % inhibition of ethidium bromide accumulation” value (shortened to “hP2X7 % inhibition”) in assay [3] is “Inactive”.
As to `COc1ccc(CCc2ncc(O)c(C(=O)O)c2C(=O)O)cc1` [Compound 13a, 5-Hydroxy-2-(4-methoxyphenethyl)pyridine-3,4-dicarboxylic acid], in assay [1] (2 μM ATP-evoked current, mean±SEM n≥3 (footnote d), read-out: mP2X1 IC50), the IC50 turned out to be 236000 ± 78000 pM. In assay [2], the IC50 worked out at 561 ± 99 nM and the “selectivity for hP2X3R to mP2X1R” value is recorded as “non-selective”. In addition, the “hP2X7 % inhibition” value in assay [3] was “Inactive”.
For `COc1ccc(CCc2nc(C)c(O)c(C(=O)O)c2C(=O)O)cc1` [Compound 13b, 5-Hydroxy-2-(4-methoxyphenethyl)-6-methylpyridine-3,4-dicarboxylic acid], the “selectivity for hP2X3R to mP2X1R” value in assay [2] is “non-selective”. Also, the “hP2X7 % inhibition” value in assay [3] is reported as “Inactive”.
With `CCCc1nc(Cc2cccc(Oc3ccccc3)c2)c(C)c(/C=C/C(=O)O)c1O` [Compound 35, (E)-3-(3-Hydroxy-5-methyl-6-(3-phenoxybenzyl)-2-propylpyridin-4-yl)acrylic acid], in assay [1] (2 μM ATP), the “mP2X1 % inhibitory effect at 10 μM” value is given as “Inactive^c”. For the same molecule, the inhibition at 1 µM in assay [2] is below 50%. Also, the “hP2X7 % inhibition” value in assay [3] was “inactive”.
As to `CCCc1nc(Cc2cccc(Oc3ccccc3)c2)c(C)c(CNS(C)(=O)=O)c1O` [Compound 43, N-((3-Hydroxy-5-methyl-6-(3-phenoxybenzyl)-2-propylpyridin-4-yl)methyl)methanesulfonamide], in assay [1] (2 μM ATP), the inhibition at 10 µM was found to be 43.1 ± 12.9%. Moreover, in assay [2], the inhibition at 1 µM is below 50%. In addition, the “hP2X7 % inhibition” value in assay [3] is “inactive”.
Take `COc1ccc(CCc2nc(CCS(C)(=O)=O)c(O)c(C(=O)O)c2C(=O)O)cc1` [Compound 13l, 5-Hydroxy-2-(4-methoxyphenethyl)-6-(2-(methylsulfonyl)ethyl)pyridine-3,4-dicarboxylic acid]: the “mP2X1 % inhibitory effect at 10 μM” value in assay [1] (2 μM ATP) was “Inactive^c”. In addition, in assay [2], the IC50 was 721 ± 96 nM. For the same molecule, the “hP2X7 % inhibition” value in assay [3] is “Inactive”.
As for `COc1ccc(CCc2nc(C)c(O)c(C#N)c2C(=O)O)cc1` [Compound 16, 4-Cyano-5-hydroxy-2-(4-methoxyphenethyl)-6-methylnicotinic acid], the “mP2X1 % inhibitory effect at 10 μM” value in assay [1] (2 μM ATP) is given as “Inactive^c”. Further, in assay [2], the inhibition at 1 µM is 33.3%. For the same molecule, the “hP2X7 % inhibition” value in assay [3] was “Inactive”.
Regarding `COc1ccc(CCc2cc(C(=O)O)c(O)c(C)n2)cc1` [Compound 22a, 3-Hydroxy-6-(4-methoxyphenethyl)-2-methylisonicotinic acid], the “mP2X1 % inhibitory effect at 10 μM” value in assay [1] (2 μM ATP) is listed as “Inactive^c”. Besides, in assay [2], the IC50 is 681 ± 98 nM. Besides, in assay [3], the “hP2X7 % inhibition” value is recorded as “Inactive”.
`O=C(NCC12CC3CC(CC(C3)C1)C2)c1cc(CCCNCCCO)ccc1Cl` [AZD9056, reference compound]: the IC50 in assay [3] (ethidium accumulation, read-out: hP2X7 (reference compound, value in nM)) was 0.23 ± 0.11 nM.
Consider `COc1ccc(CCc2nc(C(C)C)c(O)c(C(=O)O)c2C(=O)O)cc1` [Compound 13f, 5-Hydroxy-6-isopropyl-2-(4-methoxyphenethyl)pyridine-3,4-dicarboxylic acid], for which, in assay [1] (2 μM ATP), the inhibition at 10 µM was 37.3 ± 8.2%. The IC50 in assay [2] came out at 466 nM. Further, in assay [3], the “hP2X7 % inhibition” value was “inactive”.
Regarding `CCCCc1nc(CCc2ccc(OC)cc2)c(C(=O)O)c(C(=O)O)c1O` [Compound 13e, 6-Butyl-5-hydroxy-2-(4-methoxyphenethyl)pyridine-3,4-dicarboxylic acid], the inhibition at 10 µM in assay [1] (2 μM ATP) was 41.9 ± 9.1%. Also, in assay [2], the IC50 worked out at 95 nM and the “selectivity for hP2X3R to mP2X1R” value was “about 100 fold”. In assay [3], the “hP2X7 % inhibition” value is “inactive”.
`COc1ccc(CCc2cc(S(C)(=O)=O)c(O)c(C)n2)cc1` [Compound 20, 6-(4-Methoxyphenethyl)-2-methyl-4-(methylsulfonyl)pyridin-3-ol]: the “mP2X1 % inhibitory effect at 10 μM” value in assay [1] (2 μM ATP) was “inactive^c”. The inhibition at 1 µM in assay [2] is 20.4%. Also, in assay [3], the “hP2X7 % inhibition” value is “inactive”.
On to `O=C(Nc1cc(C(=O)Nc2ccc(S(=O)(=O)O)cc2S(=O)(=O)O)cc(C(=O)Nc2ccc(S(=O)(=O)O)cc2S(=O)(=O)O)c1)Nc1cc(C(=O)Nc2ccc(S(=O)(=O)O)cc2S(=O)(=O)O)cc(C(=O)Nc2ccc(S(=O)(=O)O)cc2S(=O)(=O)O)c1` [NF-449, reference compound], for which the IC50 in assay [1] (2 μM ATP, read-out: mP2X1 (positive control, value in pM)) is 307 ± 93 pM.
Regarding `CCCc1nc(Cc2cccc(Oc3ccccc3)c2)c(C)c(CCC(=O)O)c1O` [Compound 37, 3-(3-Hydroxy-5-methyl-6-(3-phenoxybenzyl)-2-propylpyridin-4-yl)propanoic acid], the “mP2X1 % inhibitory effect at 10 μM” value in assay [1] (2 μM ATP) was “inactive^c”. Also, the “hP2X7 % inhibition” value in assay [3] is “inactive”.
